Molecules are shown by their SMILES.

T1 sequence (P21554 whole entry): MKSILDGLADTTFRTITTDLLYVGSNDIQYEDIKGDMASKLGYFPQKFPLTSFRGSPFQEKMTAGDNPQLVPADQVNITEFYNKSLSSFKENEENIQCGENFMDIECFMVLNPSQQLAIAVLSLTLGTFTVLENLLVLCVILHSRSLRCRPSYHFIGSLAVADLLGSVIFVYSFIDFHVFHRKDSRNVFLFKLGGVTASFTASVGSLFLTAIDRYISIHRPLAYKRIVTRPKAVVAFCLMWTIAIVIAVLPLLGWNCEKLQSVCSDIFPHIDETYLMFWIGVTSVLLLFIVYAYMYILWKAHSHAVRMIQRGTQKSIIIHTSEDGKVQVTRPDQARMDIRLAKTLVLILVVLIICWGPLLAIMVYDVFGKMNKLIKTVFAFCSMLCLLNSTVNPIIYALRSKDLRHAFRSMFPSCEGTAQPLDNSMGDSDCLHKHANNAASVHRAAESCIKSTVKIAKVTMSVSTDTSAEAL

One assay has as its target T1, hCB1 (Homo sapiens, UniProt P21554).
T1 construct: made in house; host or cells: Sf9 insect cells (baculovirus), P2 membranes
Nature of the assay: Agonist-induced GTP binding (GTPγ35S) assay at CB1, Example 8. The assay is classed as biochemical.
Settings: not given
An outline of the steps: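 Membranes from Sf9 cells co-expressing hCB1 and heterotrimeric G-protein (10 μg protein) in Tris pH 7.4 buffer with 5 μM GDP. Test compounds (10^−10–10^−5 M) competed against 1 nM CP55,940 with […] GTPγ35S, 60 min at room temperature. Filter-bound radioactivity by scintillation, expressed as percent above basal.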
Broadly, the IC50 is the concentration needed to halve the response being measured. With `O=C(Nc1ccc(OC(F)F)cc1)Nc1ccnc(Cl)c1` [Compound 628, 1-(2-chloropyridin-4-yl)-3-[4-(difluoromethoxy)phenyl]urea], the 50% inhibitory concentration (IC50) is below 2000 nM.

The same assay, now with this note: IC50 at CB1, determined as described in Example 8; read-out: IC50.
Regarding `O=C(Nc1ccc(OC(F)(F)F)cc1)Nc1ccc2c(c1)CCC2` [Compound 610, 1-(2,3-dihydro-1H-inden-5-yl)-3-[4-(trifluoromethoxy)phenyl]urea], the IC50 is below 2000 nM. Same read-out and setting: the value for `Cc1ccc(NC(=O)Nc2ccc(OC(F)F)cc2)cc1Cl` [Compound 611, 1-(3-chloro-4-methylphenyl)-3-[4-(difluoromethoxy)phenyl]urea] was below 2000 nM; that for `Cc1cc(NC(=O)Nc2ccc(OC(F)F)cc2)ccc1Cl` [Compound 612, 1-(4-chloro-3-methylphenyl)-3-[4-(difluoromethoxy)phenyl]urea] was below 2000 nM. Same read-out and setting: in the case of `COc1cccc(NC(=O)Nc2ccc(C)c(F)c2)c1` [Compound 614, 1-(3-fluoro-4-methylphenyl)-3-(3-methoxyphenyl)urea] it was below 2000 nM; in that of `COc1ccc(NC(=O)Nc2ccc(C)c(F)c2)cc1` [Compound 615, 1-(3-fluoro-4-methylphenyl)-3-(4-methoxyphenyl)urea], below 2000 nM.

On to `CCOc1ccc(NC(=O)Nc2ccc(C)c(F)c2)cc1` [Compound 616, 1-(4-ethoxyphenyl)-3-(3-fluoro-4-methylphenyl)urea], for which the concentration for half-maximal inhibition (IC50) was below 2000 nM. Regarding `CCOc1ccc(NC(=O)Nc2ccc(F)c(C)c2)cc1` [Compound 617, 1-(4-ethoxyphenyl)-3-(4-fluoro-3-methylphenyl)urea], the half-maximal inhibitory concentration (IC50) is below 2000 nM. For `CCOc1ccc(NC(=O)Nc2ccc(F)c(F)c2)cc1` [Compound 619, 1-(3,4-difluorophenyl)-3-(4-ethoxyphenyl)urea], the 50% inhibitory concentration (IC50) was below 2000 nM. Still for that read-out and setting: the value for `COc1ccc(NC(=O)Nc2ccc3c(c2)CCC3)cc1` [Compound 620, 1-(2,3-dihydro-1H-inden-5-yl)-3-(4-methoxyphenyl)urea] was below 2000 nM; that for `COc1cccc(NC(=O)Nc2ccc(C)c(Cl)c2)c1` [Compound 621, 1-(3-chloro-4-methylphenyl)-3-(3-methoxyphenyl)urea] was below 2000 nM. Same read-out and setting: in the case of `COc1ccc(NC(=O)Nc2ccc(C)c(Cl)c2)cc1` [Compound 622, 1-(3-chloro-4-methylphenyl)-3-(4-methoxyphenyl)urea] it was below 2000 nM. On the same count and under the same terms, in the case of `CCOc1ccc(NC(=O)Nc2ccc(Cl)c(C)c2)cc1` [Compound 623, 1-(4-chloro-3-methylphenyl)-3-(4-ethoxyphenyl)urea] it was below 2000 nM.

Turning to `CCOc1ccc(NC(=O)Nc2ccc(Cl)c(Cl)c2)cc1` [Compound 624, 1-(3,4-dichlorophenyl)-3-(4-ethoxyphenyl)urea], the half-inhibitory concentration (IC50) is below 2000 nM. As for `CCOc1ccc(NC(=O)Nc2ccc(Cl)c(C(F)(F)F)c2)cc1` [Compound 625, 1-[4-chloro-3-(trifluoromethyl)phenyl]-3-(4-ethoxyphenyl)urea], the IC50 is below 2000 nM.

As to `Cc1ccc(NC(=O)Nc2ccc(C(C)C)cc2)cc1F` [Compound 626, 1-(3-fluoro-4-methylphenyl)-3-(4-isopropylphenyl)urea], the half-maximal inhibitory concentration (IC50) is below 2000 nM. Still for that read-out and setting: in the case of `O=C(Nc1ccc(OC(F)F)cc1)Nc1cnccn1` [Compound 627, 1-[4-(difluoromethoxy)phenyl]-3-pyrazin-2-ylurea] it was below 2000 nM; in that of `CCOc1ccc(NC(=O)Nc2ccc(Cl)nc2)cc1` [Compound 629, 1-(6-chloropyridin-3-yl)-3-(4-ethoxyphenyl)urea], below 2000 nM; in that of `CC(C)c1ccc(NC(=O)Nc2ccc(Cl)nc2)cc1` [Compound 630, 1-(6-chloropyridin-3-yl)-3-(4-isopropylphenyl)urea], below 2000 nM. Still for that read-out and setting: the value for `O=C(Nc1ccc(OC(F)F)cc1)Nc1ccccn1` [Compound 631, 1-[4-(difluoromethoxy)phenyl]-3-pyridin-2-ylurea] was below 2000 nM. On the same count and under the same terms, in the case of `Cc1cccnc1NC(=O)Nc1ccc(OC(F)F)cc1` [Compound 632, 1-[4-(difluoromethoxy)phenyl]-3-(3-methylpyridin-2-yl)urea] it was below 2000 nM. Regarding `Cc1cccc(NC(=O)Nc2ccc(OC(F)F)cc2)n1` [Compound 633, 1-[4-(difluoromethoxy)phenyl]-3-(6-methylpyridin-2-yl)urea], the IC50 was below 2000 nM.

As to `O=C(Nc1ccc(OC(F)F)cc1)Nc1ccc(Cl)cn1` [Compound 634, 1-(5-chloropyridin-2-yl)-3-[4-(difluoromethoxy)phenyl]urea], the IC50 is below 2000 nM. In the case of `CCc1ccc(NC(=O)Nc2ccc(C#N)cn2)cc1` [Compound 636, 1-(5-cyanopyridin-2-yl)-3-(4-ethylphenyl)urea], the 50% inhibitory concentration (IC50) is below 2000 nM. Same read-out and setting: the value for `CC(=O)c1ccc(NC(=O)Nc2ccc(Cl)nc2)cc1` [Compound 637, 1-(4-acetylphenyl)-3-(6-chloropyridin-3-yl)urea] was below 2000 nM.

As to `CCc1ccc(NC(=O)Nc2ccccn2)cc1` [Compound 638, 1-(4-ethylphenyl)-3-pyridin-2-ylurea], the IC50 is below 2000 nM.

In the case of `CCc1ccc(NC(=O)Nc2ncccc2C)cc1` [Compound 639, 1-(4-ethylphenyl)-3-(3-methylpyridin-2-yl)urea], the IC50 is below 2000 nM.

Take `CCc1ccc(NC(=O)Nc2cc(C)ccn2)cc1` [Compound 640, 1-(4-ethylphenyl)-3-(4-methylpyridin-2-yl)urea]: the IC50 is below 2000 nM. Still for that read-out and setting: in the case of `CCc1ccc(NC(=O)Nc2ccc(C)cn2)cc1` [Compound 641, 1-(4-ethylphenyl)-3-(5-methylpyridin-2-yl)urea] it was below 2000 nM; in that of `CCc1ccc(NC(=O)Nc2cc(OC)ncn2)cc1` [Compound 642, 1-(4-ethylphenyl)-3-(6-methoxypyrimidin-4-yl)urea], below 2000 nM. As for `CCOC(=O)c1cccc(NC(=O)Nc2ccc(C)cc2)c1` [Compound 643, ethyl 3-({[(4-methylphenyl)amino]carbonyl}amino)benzoate], the IC50 was below 2000 nM. Same read-out and setting: the value for `CCOC(=O)c1cccc(NC(=O)Nc2ccc(F)cc2)c1` [Compound 644, ethyl 3-({[(4-fluorophenyl)amino]carbonyl}amino)benzoate] was below 2000 nM; that for `CCc1ccc(NC(=O)Nc2cccc(C(=O)OC)c2)cc1` [Compound 645, methyl 3-({[(4-ethylphenyl)amino]carbonyl}amino)benzoate] was below 2000 nM; that for `CCOC(=O)c1cccc(NC(=O)Nc2ccc(CC)cc2)c1` [Compound 646, ethyl 3-({[(4-ethylphenyl)amino]carbonyl}amino)benzoate] was below 2000 nM. The same measure, in the same setting: the value for `COC(=O)c1cccc(NC(=O)Nc2ccc(Cl)cc2)c1` [Compound 647, methyl 3-({[(4-chlorophenyl)amino]carbonyl}amino)benzoate] was below 2000 nM; that for `CCOC(=O)c1cccc(NC(=O)Nc2ccc(Cl)cc2)c1` [Compound 648, ethyl 3-({[(4-chlorophenyl)amino]carbonyl}amino)benzoate] was below 2000 nM; that for `CCOC(=O)c1cccc(NC(=O)Nc2ccc(C(C)C)cc2)c1` [Compound 649, ethyl 3-({[(4-isopropylphenyl)amino]carbonyl}amino)benzoate] was below 2000 nM.

With `CCCc1ccc(NC(=O)Nc2cccc(C(=O)OC)c2)cc1` [Compound 650, methyl 3-({[(4-propylphenyl)amino]carbonyl}amino)benzoate], the IC50 was below 2000 nM. Still for that read-out and setting: the value for `CCCc1ccc(NC(=O)Nc2ccc(C(=O)OC)cc2)cc1` [Compound 651, methyl 4-({[(4-propylphenyl)amino]carbonyl}amino)benzoate] was below 2000 nM; that for `CCCc1ccc(NC(=O)Nc2cccc(C(=O)OCC)c2)cc1` [Compound 652, ethyl 3-({[(4-propylphenyl)amino]carbonyl}amino)benzoate] was below 2000 nM; that for `CCCc1ccc(NC(=O)Nc2ccc(C(=O)OCC)cc2)cc1` [Compound 653, ethyl 4-({[(4-propylphenyl)amino]carbonyl}amino)benzoate] was below 2000 nM.

Consider `CCCc1ccc(NC(=O)Nc2ccc(C)c(C)c2)cc1` [Compound 654, 1-(3,4-dimethylphenyl)-3-(4-propylphenyl)urea], for which the half-inhibitory concentration (IC50) is below 2000 nM. Still for that read-out and setting: the value for `CCCc1ccc(NC(=O)Nc2ccc(C)c(F)c2)cc1` [Compound 655, 1-(3-fluoro-4-methylphenyl)-3-(4-propylphenyl)urea] was below 2000 nM; that for `CCCc1ccc(NC(=O)Nc2ccc(F)c(C)c2)cc1` [Compound 656, 1-(4-fluoro-3-methylphenyl)-3-(4-propylphenyl)urea] was below 2000 nM; that for `CCc1ccc(NC(=O)Nc2cc(F)cc(F)c2)cc1` [Compound 657, 1-(3,5-difluorophenyl)-3-(4-ethylphenyl)urea] was below 2000 nM. The same measure, in the same setting: the value for `CCCc1ccc(NC(=O)Nc2cc(C)cc(C)c2)cc1` [Compound 658, 1-(3,5-dimethylphenyl)-3-(4-propylphenyl)urea] was below 2000 nM; that for `CCOc1cccc(NC(=O)Nc2cccc(C(=O)OC)c2)c1` [Compound 659, methyl 3-({[(3-ethoxyphenyl)amino]carbonyl}amino)benzoate] was below 2000 nM. Take `CCOc1cccc(NC(=O)Nc2ccc(C(=O)OC)cc2)c1` [Compound 660, methyl 4-({[(3-ethoxyphenyl)amino]carbonyl}amino)benzoate]: the IC50 was below 2000 nM. On the same count and under the same terms, in the case of `CCOC(=O)c1cccc(NC(=O)Nc2cccc(OCC)c2)c1` [Compound 661, ethyl 3-({[(3-ethoxyphenyl)amino]carbonyl}amino)benzoate] it was below 2000 nM. Still for that read-out and setting: the value for `CCOC(=O)c1ccc(NC(=O)Nc2cccc(OCC)c2)cc1` [Compound 662, ethyl 4-({[(3-ethoxyphenyl)amino]carbonyl}amino)benzoate] was below 2000 nM; that for `CCOc1ccc(NC(=O)Nc2cccc(C(=O)OC)c2)cc1` [Compound 663, methyl 3-({[(4-ethoxyphenyl)amino]carbonyl}amino)benzoate] was below 2000 nM.

The record behind these values is patent US20090239841A1, “Diaryl Ureas as CB1 Antagonists” (priority 2004, published 2009).
